Measurements taken from the kinase profiling compilation of Christmann-Franck et al. (2016).

What was measured:
Assay in all cases: radiometric filter-binding kinase assay, Kinase HotSpot
Conditions in all cases: compound 0.5 µM; ATP 10 µM
[1] = target: AKT2 (human) (UniProt P31751)
[2] = target: BLK (human) (UniProt P51451)
[3] = target: BMX (human) (UniProt P51813)
[4] = target: CDK4 CCND3 (human) (UniProt P30281+P11802)
[5] = target: CDK7 CCNH MNAT1 (human) (UniProt P50613+P51948+P51946)
[6] = target: CSNK1D (human) (UniProt P48730)
[7] = target: DCLK2 (human) (UniProt Q8N568)
DCLK2 (human), sequence (Q8N568 whole entry, looked up): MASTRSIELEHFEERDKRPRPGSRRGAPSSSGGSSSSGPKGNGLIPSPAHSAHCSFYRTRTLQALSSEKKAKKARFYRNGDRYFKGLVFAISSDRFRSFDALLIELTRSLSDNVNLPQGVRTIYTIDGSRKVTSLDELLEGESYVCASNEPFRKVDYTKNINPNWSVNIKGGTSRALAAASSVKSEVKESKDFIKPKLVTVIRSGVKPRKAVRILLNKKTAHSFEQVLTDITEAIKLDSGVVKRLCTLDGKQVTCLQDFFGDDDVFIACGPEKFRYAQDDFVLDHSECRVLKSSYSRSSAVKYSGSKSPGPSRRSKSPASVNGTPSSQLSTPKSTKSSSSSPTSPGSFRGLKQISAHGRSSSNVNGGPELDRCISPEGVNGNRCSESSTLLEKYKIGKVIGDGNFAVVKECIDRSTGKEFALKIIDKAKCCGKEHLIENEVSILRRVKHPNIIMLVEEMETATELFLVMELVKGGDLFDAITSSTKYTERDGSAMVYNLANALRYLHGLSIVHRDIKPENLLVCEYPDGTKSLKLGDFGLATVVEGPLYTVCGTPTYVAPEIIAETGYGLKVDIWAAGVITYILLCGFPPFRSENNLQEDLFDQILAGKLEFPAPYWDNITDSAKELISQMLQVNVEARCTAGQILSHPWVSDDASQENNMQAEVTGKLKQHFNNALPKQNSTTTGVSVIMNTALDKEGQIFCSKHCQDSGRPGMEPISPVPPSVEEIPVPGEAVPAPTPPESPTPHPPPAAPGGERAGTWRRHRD

[8] = target: DDR2 (human) (UniProt Q16832)
[9] = target: DMPK (human) (UniProt Q09013)
[10] = target: EPHA7 (human) (UniProt Q15375)
[11] = target: EPHA8 (human) (UniProt P29322)
[12] = target: FGFR1 (human) (UniProt P11362)
FGFR1 (human), sequence (P11362 whole entry, looked up): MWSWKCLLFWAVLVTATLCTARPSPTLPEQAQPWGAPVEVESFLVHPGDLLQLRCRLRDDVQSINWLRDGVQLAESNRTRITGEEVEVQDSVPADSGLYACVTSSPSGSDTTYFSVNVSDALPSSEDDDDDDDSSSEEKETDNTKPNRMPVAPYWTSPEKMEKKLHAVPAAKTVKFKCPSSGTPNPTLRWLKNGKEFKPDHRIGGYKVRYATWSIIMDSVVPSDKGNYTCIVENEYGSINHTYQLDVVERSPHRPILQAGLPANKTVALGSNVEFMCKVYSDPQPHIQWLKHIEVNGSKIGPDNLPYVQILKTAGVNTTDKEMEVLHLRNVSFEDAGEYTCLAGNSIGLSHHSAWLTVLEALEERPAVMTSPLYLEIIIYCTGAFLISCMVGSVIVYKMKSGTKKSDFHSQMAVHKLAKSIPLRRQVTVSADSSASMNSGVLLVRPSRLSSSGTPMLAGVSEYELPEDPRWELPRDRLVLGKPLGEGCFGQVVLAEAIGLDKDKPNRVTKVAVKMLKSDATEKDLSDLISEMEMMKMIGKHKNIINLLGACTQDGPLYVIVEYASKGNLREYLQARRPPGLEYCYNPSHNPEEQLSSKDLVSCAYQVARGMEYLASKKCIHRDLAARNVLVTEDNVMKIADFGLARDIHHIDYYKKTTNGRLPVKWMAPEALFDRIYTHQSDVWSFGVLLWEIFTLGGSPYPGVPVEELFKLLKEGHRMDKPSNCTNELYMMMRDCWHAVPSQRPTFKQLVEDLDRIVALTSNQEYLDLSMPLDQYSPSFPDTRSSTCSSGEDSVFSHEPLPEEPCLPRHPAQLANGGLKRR

[13] = target: FGFR3 (human) (UniProt P22607)
[14] = target: GRK4 (human) (UniProt P32298)
[15] = target: GSG2 (human) (UniProt Q8TF76)
[16] = target: HCK (human) (UniProt P08631)
HCK (human), sequence (P08631 whole entry, looked up): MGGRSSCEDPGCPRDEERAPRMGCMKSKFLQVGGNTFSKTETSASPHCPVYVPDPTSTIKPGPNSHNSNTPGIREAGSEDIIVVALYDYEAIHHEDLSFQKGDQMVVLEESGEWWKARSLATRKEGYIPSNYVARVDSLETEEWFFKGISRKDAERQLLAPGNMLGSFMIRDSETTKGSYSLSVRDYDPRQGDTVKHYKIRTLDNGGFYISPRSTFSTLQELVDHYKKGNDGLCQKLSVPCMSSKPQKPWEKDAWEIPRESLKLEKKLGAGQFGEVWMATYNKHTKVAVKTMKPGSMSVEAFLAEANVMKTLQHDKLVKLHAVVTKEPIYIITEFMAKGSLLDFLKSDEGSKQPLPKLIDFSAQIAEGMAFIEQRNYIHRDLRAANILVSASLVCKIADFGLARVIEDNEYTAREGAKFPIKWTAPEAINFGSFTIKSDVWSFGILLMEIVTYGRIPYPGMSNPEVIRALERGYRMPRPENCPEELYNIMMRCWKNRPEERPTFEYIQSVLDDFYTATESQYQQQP

[17] = target: HIPK2 (human) (UniProt Q9H2X6)
[18] = target: IKBKE (human) (UniProt Q14164)
[19] = target: INSRR (human) (UniProt P14616)
[20] = target: MAPK12 (human) (UniProt P53778)
MAPK12 (human), sequence (P53778 whole entry, looked up): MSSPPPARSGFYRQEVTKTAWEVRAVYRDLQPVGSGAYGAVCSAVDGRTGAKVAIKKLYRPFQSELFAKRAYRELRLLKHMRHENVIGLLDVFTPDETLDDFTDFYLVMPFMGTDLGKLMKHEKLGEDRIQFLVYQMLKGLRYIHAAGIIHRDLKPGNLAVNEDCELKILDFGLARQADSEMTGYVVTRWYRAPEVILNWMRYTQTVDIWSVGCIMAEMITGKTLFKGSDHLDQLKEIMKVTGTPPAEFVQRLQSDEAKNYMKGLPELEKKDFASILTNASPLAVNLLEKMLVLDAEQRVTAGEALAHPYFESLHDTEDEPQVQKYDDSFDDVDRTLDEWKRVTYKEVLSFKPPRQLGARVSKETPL

[21] = target: MAPK13 (human) (UniProt O15264)
MAPK13 (human), sequence (O15264 whole entry, looked up): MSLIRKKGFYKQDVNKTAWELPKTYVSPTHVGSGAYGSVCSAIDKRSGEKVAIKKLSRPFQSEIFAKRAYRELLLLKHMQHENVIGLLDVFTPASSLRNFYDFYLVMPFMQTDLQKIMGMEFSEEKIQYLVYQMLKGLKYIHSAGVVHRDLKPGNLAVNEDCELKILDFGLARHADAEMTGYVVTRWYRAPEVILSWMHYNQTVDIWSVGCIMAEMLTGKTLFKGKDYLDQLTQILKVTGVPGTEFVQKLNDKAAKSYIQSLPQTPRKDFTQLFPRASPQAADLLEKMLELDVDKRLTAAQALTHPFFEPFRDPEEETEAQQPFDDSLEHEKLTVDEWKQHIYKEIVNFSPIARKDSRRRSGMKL

[22] = target: MARK4 (human) (UniProt Q96L34)
[23] = target: MST4 (human) (UniProt Q9P289)
[24] = target: NEK7 (human) (UniProt Q8TDX7)
[25] = target: PAK4 (human) (UniProt O96013)
[26] = target: PKN2 (human) (UniProt Q16513)
PKN2 (human), sequence (Q16513 whole entry, looked up): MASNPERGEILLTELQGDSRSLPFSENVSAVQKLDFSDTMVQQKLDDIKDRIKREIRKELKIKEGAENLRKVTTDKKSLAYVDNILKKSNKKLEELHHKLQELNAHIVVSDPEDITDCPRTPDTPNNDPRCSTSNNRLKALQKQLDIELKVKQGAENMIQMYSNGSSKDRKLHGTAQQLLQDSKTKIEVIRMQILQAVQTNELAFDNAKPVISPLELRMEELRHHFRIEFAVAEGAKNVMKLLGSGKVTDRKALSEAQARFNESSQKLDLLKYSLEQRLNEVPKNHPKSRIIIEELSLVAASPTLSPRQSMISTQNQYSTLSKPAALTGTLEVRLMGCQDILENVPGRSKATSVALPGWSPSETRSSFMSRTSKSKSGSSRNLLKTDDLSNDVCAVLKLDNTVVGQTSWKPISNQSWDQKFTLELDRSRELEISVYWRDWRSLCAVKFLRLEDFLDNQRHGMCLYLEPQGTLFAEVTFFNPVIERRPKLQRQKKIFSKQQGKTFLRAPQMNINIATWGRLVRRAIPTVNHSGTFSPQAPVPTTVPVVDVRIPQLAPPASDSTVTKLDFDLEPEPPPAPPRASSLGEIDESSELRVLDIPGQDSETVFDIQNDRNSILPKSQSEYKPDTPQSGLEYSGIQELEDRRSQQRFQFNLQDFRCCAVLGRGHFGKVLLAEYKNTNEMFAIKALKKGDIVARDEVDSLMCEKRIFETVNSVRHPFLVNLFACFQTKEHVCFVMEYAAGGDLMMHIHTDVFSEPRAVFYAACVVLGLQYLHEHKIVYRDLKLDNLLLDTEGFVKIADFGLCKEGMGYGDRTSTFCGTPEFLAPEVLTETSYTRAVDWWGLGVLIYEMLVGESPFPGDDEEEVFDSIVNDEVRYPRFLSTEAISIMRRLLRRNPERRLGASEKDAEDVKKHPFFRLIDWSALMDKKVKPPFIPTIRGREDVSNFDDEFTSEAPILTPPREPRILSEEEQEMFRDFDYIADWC

[27] = target: PLK1 (human) (UniProt P53350)
[28] = target: PRKCB1 (human) (UniProt P05771)
PRKCB1 (human), sequence (P05771 whole entry, looked up): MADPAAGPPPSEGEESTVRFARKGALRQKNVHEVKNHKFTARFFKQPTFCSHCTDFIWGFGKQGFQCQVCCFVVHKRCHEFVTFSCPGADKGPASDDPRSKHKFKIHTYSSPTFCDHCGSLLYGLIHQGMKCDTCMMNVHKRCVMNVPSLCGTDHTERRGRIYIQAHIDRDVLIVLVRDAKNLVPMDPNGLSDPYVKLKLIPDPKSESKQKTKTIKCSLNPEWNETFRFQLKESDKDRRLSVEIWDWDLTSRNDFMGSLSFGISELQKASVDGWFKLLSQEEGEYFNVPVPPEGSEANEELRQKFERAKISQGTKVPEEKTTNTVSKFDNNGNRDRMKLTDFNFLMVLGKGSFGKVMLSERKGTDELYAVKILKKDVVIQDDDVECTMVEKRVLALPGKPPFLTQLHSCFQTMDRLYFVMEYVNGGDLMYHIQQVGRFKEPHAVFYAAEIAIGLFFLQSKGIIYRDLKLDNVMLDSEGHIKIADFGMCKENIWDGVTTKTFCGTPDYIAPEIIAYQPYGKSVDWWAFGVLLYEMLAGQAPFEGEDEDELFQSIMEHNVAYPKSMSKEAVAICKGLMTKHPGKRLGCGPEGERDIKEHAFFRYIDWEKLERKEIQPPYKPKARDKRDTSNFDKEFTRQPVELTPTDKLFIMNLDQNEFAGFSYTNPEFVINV

[29] = target: PRKCZ (human) (UniProt Q05513)
[30] = target: RPS6KA5 KD2 (human) (UniProt O75582)
[31] = target: RPS6KB2 (human) (UniProt Q9UBS0)
[32] = target: SGK2 (human) (UniProt Q9HBY8)
[33] = target: SRC (human) (UniProt P12931)
[34] = target: STK11 (human) (UniProt Q15831)
STK11 (human), sequence (Q15831 whole entry, looked up): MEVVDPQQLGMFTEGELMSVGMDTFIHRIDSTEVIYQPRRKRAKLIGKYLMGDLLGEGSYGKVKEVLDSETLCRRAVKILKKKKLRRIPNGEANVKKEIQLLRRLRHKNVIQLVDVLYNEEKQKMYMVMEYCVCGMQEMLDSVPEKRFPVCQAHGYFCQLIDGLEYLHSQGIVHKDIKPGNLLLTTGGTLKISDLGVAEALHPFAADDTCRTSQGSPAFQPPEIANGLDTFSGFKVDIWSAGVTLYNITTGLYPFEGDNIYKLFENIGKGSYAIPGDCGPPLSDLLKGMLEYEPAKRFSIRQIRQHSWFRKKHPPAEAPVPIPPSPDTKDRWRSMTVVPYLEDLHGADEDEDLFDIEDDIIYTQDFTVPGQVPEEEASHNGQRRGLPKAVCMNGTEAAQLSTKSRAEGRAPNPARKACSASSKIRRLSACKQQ

[35] = target: STK17A (human) (UniProt Q9UEE5)
[36] = target: TAOK1 (human) (UniProt Q7L7X3)
[37] = target: TGFBR2 (human) (UniProt P37173)
[38] = target: WEE1 (human) (UniProt P30291)
[39] = target: WNK2 (human) (UniProt Q9Y3S1)
[40] = target: YES1 (human) (UniProt P07947)
[41] = target: ZAP70 (human) (UniProt P43403)
[42] = target: CDK5 CDK5R1 p25 (human) (UniProt Q00535+Q15078)

Nc1ncnc2c1c(-c1ccc(Oc3ccccc3)cc1)cn2C1CCCC1
residual activity [1]: 99.7%
residual activity [2]: 1.52%
residual activity [3]: 10.1%
residual activity [4]: 108%
residual activity [5]: 96.8%
residual activity [6]: 85.1%
residual activity [7]: 99.5%
residual activity [8]: 95%
residual activity [9]: 136%
residual activity [10]: 98.3%
residual activity [11]: 95.2%
residual activity [12]: 77.4%
residual activity [13]: 77.5%
residual activity [14]: 103%
residual activity [15]: 94.6%
residual activity [16]: 2.18%
residual activity [17]: 106%
residual activity [18]: 97.4%
residual activity [19]: 81.9%
residual activity [20]: 97.6%
residual activity [21]: 95.3%
residual activity [22]: 85.2%
residual activity [23]: 95.2%
residual activity [24]: 94.6%
residual activity [25]: 101%
residual activity [26]: 104%
residual activity [27]: 100%
residual activity [28]: 92.8%
residual activity [29]: 107%
residual activity [30]: 90.5%
residual activity [31]: 107%
residual activity [32]: 95.4%
residual activity [33]: 13.4%
residual activity [34]: 101%
residual activity [35]: 96.3%
residual activity [36]: 84.6%
residual activity [37]: 166%
residual activity [38]: 77.8%
residual activity [39]: 102%
residual activity [40]: 0.657%
residual activity [41]: 102%

N#CC(C#N)=C(N)/C(C#N)=C/c1ccc(O)cc1
residual activity [1]: 92.8%
residual activity [2]: 101%
residual activity [3]: 80%
residual activity [4]: 97.1%
residual activity [42]: 97.6%
residual activity [5]: 91.2%
residual activity [6]: 98.7%
residual activity [7]: 101%
residual activity [8]: 97.6%
residual activity [9]: 101%
residual activity [10]: 90.5%
residual activity [11]: 102%
residual activity [12]: 95.3%
residual activity [13]: 98.9%
residual activity [14]: 99.6%
residual activity [15]: 90.1%
residual activity [16]: 98.6%
residual activity [17]: 102%
residual activity [18]: 91%
residual activity [19]: 99.9%
residual activity [20]: 92.6%
residual activity [21]: 103%
residual activity [22]: 94.3%
residual activity [23]: 101%
residual activity [24]: 98.9%
residual activity [25]: 85.6%
residual activity [26]: 96.9%
residual activity [27]: 60.8%
residual activity [28]: 114%
residual activity [29]: 105%
residual activity [30]: 96.7%
residual activity [31]: 96.8%
residual activity [32]: 110%
residual activity [33]: 92.3%
residual activity [34]: 96.5%
residual activity [35]: 72.8%
residual activity [36]: 93.2%
residual activity [37]: 113%
residual activity [38]: 93.7%
residual activity [40]: 100%
residual activity [41]: 96%

CC#CC(=O)Nc1cc2c(Nc3ccc(F)c(Cl)c3)ncnc2cn1
residual activity [2]: 21.3%
residual activity [3]: 2.54%
residual activity [4]: 105%
residual activity [42]: 99.2%
residual activity [5]: 101%
residual activity [6]: 99.3%
residual activity [7]: 102%
residual activity [8]: 108%
residual activity [9]: 104%
residual activity [10]: 91.3%
residual activity [11]: 100%
residual activity [12]: 91.1%
residual activity [13]: 108%
residual activity [14]: 104%
residual activity [15]: 101%
residual activity [16]: 92.2%
residual activity [17]: 101%
residual activity [18]: 98.9%
residual activity [19]: 101%
residual activity [20]: 99.4%
residual activity [21]: 105%
residual activity [22]: 101%
residual activity [23]: 103%
residual activity [24]: 98.2%
residual activity [25]: 107%
residual activity [26]: 95%
residual activity [27]: 99.3%
residual activity [28]: 97.4%
residual activity [29]: 114%
residual activity [30]: 103%
residual activity [31]: 97.2%
residual activity [32]: 98.3%
residual activity [33]: 97.7%
residual activity [34]: 99.6%
residual activity [35]: 92.9%
residual activity [36]: 104%
residual activity [37]: 123%
residual activity [38]: 93.2%
residual activity [39]: 107%
residual activity [40]: 82.3%
residual activity [41]: 90.4%
